From patent US20100261666A1, “COMPOSITIONS AND METHODS FOR THE TREATMENT OF MYOCARDIAL DYSFUNCTION ASSOCIATED WITH SIRS OR SEPSIS” (THE BOARD OF TRUSTEES OF THE UNIVERSITY OF ILLINOIS, priority 2009, published 2010)
Read-outs that look alike come from different tables or passages of the source.

Legend:
[1] = test system: rat isolated hearts; assay: Langendorff rat isolated heart procedure: left ventricular function and coronary flow; assay type: in vivo; details: for Coronary flow Baseline / Coronary flow 30 min / Coronary flow 60 min / Coronary flow 90 min / Coronary flow 120 min / Coronary flow 150 min: mean ± SEM
Method: Male Sprague Dawley, virus-free rats (Harlan) were used in each of the examples presented herein. After arrival and a brief acclimation (72 hours minimum), animals were randomized into control or experimental groups. The control and experimental protocols (Table 1) and experimental group treatments (Table 2) are described below.
Rat isolated heart experiments were performed via Langendorff method. […] CON hearts received vehicle (IP sterile water). […] Heparin was allowed to circulate for 60 seconds at which time a thoracotomy was performed to expose the heart. The heart was quickly removed, placed in ice cold Krebs-Ringers bicarbonate buffer (KRB, described below) and weighed. The ascending aorta was rapidly cannulated and the heart was attached, via the cannula, to the perfusion apparatus. The hearts were perfused with a modified KRB containing (102 mM NaCl, 4.75 mM KCl, 1.20 mM KH2PO4, 1.18 mM MgSO4, 22.75 mM NaHCO3, 11.50 mM Glucose, 4.96 mM Na-Pyruvate, 5.40 mM Na-Fumarate and 1 mM CaCl2), at a temperature of 37.0° C., and pH 7.4 as maintained by vigorous bubbling with 95%/5% O2/CO2.
At all times, hearts were perfused with KRB at a pressure of 72-78 mmHg set by the height of the water-jacketed reservoir. The left atrium of the heart was then removed, just above the left atrio-ventricular valve. A latex balloon was used to measure left ventricular pressure as an index of cardiac performance. The balloon was constructed by filling the reservoir tip of a latex condom with degassed water. PE-50 tubing, pre-filled with degassed water and attached to a stopcock/Hamilton screw-top syringe assembly, was flanged and placed into the tip of the condom. Surgical silk (5-0) was used to gather the condom tip around the flanged end of the tubing and form a seal, at which time the excess latex was removed.
The balloon/stopcock assembly was attached to a pressure transducer (Spectramed-Statham) and inserted into the left ventricle to record cardiac performance data via Windaq (DATAQ, CA). Two platinum electrodes, connected to a electrical stimulator (Grass Model 92C), were placed at the lateral edges of the right atria in order to pace the heart at 300 BPM using a voltage 10% greater than that required to capture rhythm. The volume in the latex balloon was increased to produce a left ventricular diastolic pressure (LVdiaP) of 10.0 mmHg.
The heart was then perfused normally for 30 minutes, a period designated as the equilibration phase. During this phase of perfusion hearts had to maintain a LVdiaP of 10.0±2.0 mmHg to be included in the study. At the end of thirty minutes, baseline measurements of coronary flow and left ventricular pressure were made. This time point was designated as 0 minutes. At this time, hearts receiving LPS (10 μg/mL/min) were infused via injection port/stop cock assembly, into the KRB perfusion stream, just above the aortic cannula for a total infusion time of 60 minutes. Hearts not receiving LPS were infused with vehicle (sterile water, 1.25% coronary flow (mL)·min). At 60 minutes, infusion was halted and normal KRB perfusion continued for 90 minutes (total experimental time post-equilibration=150 minutes).
Measurements of coronary flow and left ventricular pressure were taken every 30 minutes starting at 0 minutes. At the termination of the experiment, the left ventricle was rapidly excised from the whole heart, flash frozen in liquid nitrogen and stored at −80.0° C. for further analysis.
Statistical analysis was performed on data generated from these experimental protocols using a one-way analysis of variance (one-way ANOVA) with pair wise comparisons (Fisher Least Significant Difference test (LSD)). Data is presented herein as mean±standard error of the mean (SEM).
The Fisher LSD was used to determine whether 30 and 150 min values differed from baseline values. In addition, changes from baseline values (e.g., 30 or 150 minute value−respective baseline value) were compared among groups.

[2] = biological target: adenosine deaminase (Rattus norvegicus, UniProt Q920P6); details: LV tissue homogenates at 150 minute time point
Chain of adenosine deaminase (Q920P6 whole entry): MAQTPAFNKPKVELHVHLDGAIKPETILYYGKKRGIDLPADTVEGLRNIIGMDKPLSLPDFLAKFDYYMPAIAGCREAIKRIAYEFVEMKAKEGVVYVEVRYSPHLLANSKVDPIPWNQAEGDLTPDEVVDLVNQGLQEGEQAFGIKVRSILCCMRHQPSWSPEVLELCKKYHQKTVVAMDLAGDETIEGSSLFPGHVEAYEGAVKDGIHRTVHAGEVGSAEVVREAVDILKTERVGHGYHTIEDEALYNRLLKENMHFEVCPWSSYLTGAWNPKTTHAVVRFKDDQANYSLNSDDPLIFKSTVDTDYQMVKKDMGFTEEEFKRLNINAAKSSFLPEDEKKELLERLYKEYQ
Method: Assays were performed according to the manufacturer's instructions.

[3] = test system: TNF-α; assay: Real time PCR, left ventricular TNF-α mRNA expression; assay type: in vivo, rat; details: LPS infusion
Method: Total RNA was isolated from left ventricular tissue using the SV Total Isolation System (Promega Corp., Madison, Wis.). Isolation was performed according to manufacturer instructions and followed by DNAse treatment to eliminate residual genomic DNA contamination. RNA integrity was determined by loading 1.0 μg of total RNA isolate from each sample onto a 1.0% agarose gel and staining with ethidium bromide to visualize the 18 and 28s RNA bands. The amount of RNA recovered was determined using the Ribogreen RNA Quantification Kit (Molecular Probes, Eugene, Oreg.). […]
Specific primer sequences, GenBank accession numbers, Sequence Identifiers, and product sizes are disclosed in Table 5. […] For real-time PCRs, SYBR PCR Master Mix (Bio-Rad Laboratories, Hercules, Calif.) was used, and thermocycling and fluorescence detection was performed using a Stratagene Mx3000p real-time PCR machine.
After confirmation of primer efficiency and specificity, the concentrations of purified products generated by standard PCR were determined using Molecular Probe's Picogreen DNA quantification kit, and PCR products were serially diluted to obtain standards containing 10^1, 10^2, 10^3, 10^4, 10^5, and 10^6 copies of synthetic template. […]

[4] = test system: ADA1; assay: Real time PCR, left ventricular ADA1 mRNA expression; assay type: in vivo, rat
Method: Total RNA was isolated from left ventricular tissue using the SV Total Isolation System (Promega Corp., Madison, Wis.). Isolation was performed according to manufacturer instructions and followed by DNAse treatment to eliminate residual genomic DNA contamination. RNA integrity was determined by loading 1.0 μg of total RNA isolate from each sample onto a 1.0% agarose gel and staining with ethidium bromide to visualize the 18 and 28s RNA bands. The amount of RNA recovered was determined using the Ribogreen RNA Quantification Kit (Molecular Probes, Eugene, Oreg.). 1 μg of total RNA was reverse transcribed in a […] using random hexamer primers with enzyme and buffers supplied in the cDNA First Strand Synthesis kit (MRI Fermentas, Hanover, Md.). First strand cDNA was treated with ribonuclease H to remove residual RNA.
Real time PCR (qPCR) was performed to measure RNA transcripts for left ventricular TNF-α and ADA1. Three housekeeping genes were selected as follows to produce an intergroup correction factor for target transcripts: Cyclophilin A, hypoxanthine-guanine physphoribosyltransferase (HPRT), and β-actin. Primers were selected using Primer 3 software (Rosen and Skaletsky, Whitehead Institute for Biomedical Research) with the rat genomic sequences for TNF gene, ADA gene, HPRT gene, β-actin gene, and Cyclophilin gene as templates. BLAST (National Center for Biotechnology Information) searches were used to verify that the selected primers were specific for the designated target.
Specific primer sequences, GenBank accession numbers, Sequence Identifiers, and product sizes are disclosed in Table 5. Primers were used in a standard PCR with the 2× Master Mix PCR reagent (MRI Fermentas) and cDNA from the tissue of interest as a template. The thermocycling profile consisted of one cycle of 95° C. for 10 minutes, followed by 41 cycles of 95° C. for 1 minute, 61° C. for 1 minute, and 72° C. for 1 minute and a final cycle of 72° C. for 10 minutes. Products were run on a 1.0% agarose gel and stained with ethidium bromide to confirm that only one band was amplified and that no primer dimers were present. PCR products were then column-purified (QIAGEN, Valencia, Calif.) and sequenced to confirm target specificity. For real-time PCRs, SYBR PCR Master Mix (Bio-Rad Laboratories, Hercules, Calif.) was used, and thermocycling and fluorescence detection was performed using a Stratagene Mx3000p real-time PCR machine.
Standards were then amplified by real-time PCR, and standard curves were generated using Stratagene Mx3000P software. […]
A housekeeping gene was selected for normalization of the real-time PCR data for the TNF-α and ADA1 transcripts. Three potential gene (mRNA) products were analyzed for this purpose: CYC, β-actin and HPRT.

[5] = biological target: ADA (Homo sapiens, UniProt P00813); details: cited from earlier work
Chain of ADA (P00813 whole entry, species assumed, the tested form may be a part): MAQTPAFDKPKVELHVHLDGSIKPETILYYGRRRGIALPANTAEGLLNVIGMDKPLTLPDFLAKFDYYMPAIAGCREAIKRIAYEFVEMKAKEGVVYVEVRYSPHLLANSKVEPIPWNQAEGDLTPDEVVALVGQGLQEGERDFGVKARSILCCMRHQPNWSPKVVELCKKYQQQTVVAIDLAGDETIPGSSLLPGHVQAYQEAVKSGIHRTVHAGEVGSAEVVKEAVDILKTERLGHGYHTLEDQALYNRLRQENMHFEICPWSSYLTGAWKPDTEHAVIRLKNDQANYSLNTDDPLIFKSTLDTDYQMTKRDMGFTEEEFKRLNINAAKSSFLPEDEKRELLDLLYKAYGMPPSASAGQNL

[6] = LPS infusion, 30 minutes, change from baseline, mean±SEM

Structure (SMILES): OC[C@H]1O[C@@H](n2cnc3c2N=CNCC3O)CC1O (stereo in doubt) [dCF, 2′-deoxycoformycin]
- Coronary flow Baseline ([1]; LPS infusion 10 μg/mL/min (-LPS group)): 27.4 ± 1.7 mL/min
- Coronary flow 30 min ([1]; LPS infusion (-LPS group)): 28.7 ± 1.2 mL/min
- Coronary flow 60 min ([1]; LPS infusion (-LPS group)): 27.8 ± 1.2 mL/min
- Coronary flow 90 min ([1]; LPS infusion (-LPS group)): 25.7 ± 1.0 mL/min
- Coronary flow 120 min ([1]; LPS infusion (-LPS group)): 22.4 ± 1.1 mL/min
- Coronary flow 150 min ([1]; LPS infusion (-LPS group)): 19.6 ± 0.8 mL/min
- +dP/dt compared to respective baseline ([1]; LPS infusion, 30 minutes): significantly greater
- LV developed pressure compared to respective baseline ([1]; LPS infusion, 30 minutes): significantly increased
- LV diastolic pressure compared to respective baseline ([1]; LPS infusion, 30 minutes): significantly lower
- LV systolic pressure compared to respective baseline ([1]; LPS infusion, 30 minutes): significantly greater
- increase in LV developed pressure compared to LPS group ([1]; LPS infusion, 30 minutes): similar
- increase in LV systolic pressure compared to LPS group ([1]; LPS infusion, 30 minutes): similar
- increase in −dP/dt compared to LPS group ([1]; LPS infusion, 30 minutes): similar
- −dP/dt compared to respective baseline ([1]; LPS infusion, 30 minutes): significantly greater
- increase in LV developed pressure [1, 6]: 20.1±3.2 mmHg
- increase in LV systolic pressure [1, 6]: 17.1±3.0 mmHg
- +dP/dt compared to CON ([1]; LPS infusion, 150 minutes): No differences
- +dP/dt compared to LPS hearts ([1]; LPS infusion, 150 minutes): improved
- LV developed pressure compared to CON ([1]; LPS infusion, 150 minutes): No differences
- LV developed pressure compared to LPS hearts ([1]; LPS infusion, 150 minutes): improved
- LV developed pressure compared to respective baseline ([1]; LPS infusion, 150 minutes): not significantly different
- LV diastolic pressure (LPS-induced increase) compared to LPS hearts ([1]; LPS infusion, 150 minutes): improved
- LV systolic pressure compared to LPS group / among groups ([1]; LPS infusion, 150 minutes): no significant differences
- −dP/dt compared to LPS alone / among groups ([1]; LPS infusion, 150 minutes): No significant differences
- −dP/dt compared to respective baseline ([1]; LPS infusion, 150 minutes): significantly lower
- Coronary flow 30 min ([1]; vehicle infusion (-CON group)): 27.7 ± 1.9 mL/min
- Coronary flow 60 min ([1]; vehicle infusion (-CON group)): 26.3 ± 2.1 mL/min
- Coronary flow 90 min ([1]; vehicle infusion (-CON group)): 24.5 ± 1.8 mL/min
- Coronary flow 120 min ([1]; vehicle infusion (-CON group)): 21.5 ± 1.9 mL/min
- Coronary flow 150 min ([1]; vehicle infusion (-CON group)): 19.8 ± 2.0 mL/min
- Coronary flow Baseline ([1]; vehicle infusion (-CON group)): 28.1 ± 1.9 mL/min
- +dP/dt compared to respective baseline ([1]; vehicle infusion, 30 minutes): no differences
- LV diastolic pressure compared to respective baseline ([1]; vehicle infusion, 30 minutes): significantly lower
- −dP/dt compared to respective baseline ([1]; vehicle infusion, 30 minutes): no differences
- LV developed pressure compared to respective baseline ([1]; vehicle infusion, 150 minutes): not significantly different
- −dP/dt compared to respective baseline ([1]; vehicle infusion, 150 minutes): significantly lower
- LV ADA activity compared to CON and LPS hearts ([2]; LPS infusion): significant decrease
- LV ADA activity compared to CON and LPS hearts ([2]; vehicle infusion): significant decrease
- left ventricular TNF-α mRNA expression compared to LPS hearts [3]: did not significantly alter
- left ventricular ADA1 mRNA expression (copy numbers) compared to CON and LPS hearts ([4]; LPS infusion): significantly lower
- left ventricular ADA1 mRNA expression (copy numbers) compared to CON and LPS hearts ([4]; vehicle infusion): significantly lower
- binding between dCF and ADA [5]: effectively irreversible
